{"source": "paper PMC10257182", "about": "“Discovery of senolytics using machine learning” (Nature Communications, 2023)", "format_in_all_cases": "cell-based, human", "key": {"[1]": {"system": "senescent A549 cells (etoposide-induced)", "test": "Nuclei count senolytic assay, therapy-induced senescence (TIS) model, senescent cells", "conditions": "Homo sapiens, A549, read-out: Mean % Cell Survival", "outline": "(§1)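 A549 cells made senescent with 100 μM etoposide for 48 h then 3 days in normal media; non-senescent A549 as control. Cells were exposed for 72 h to a 10-point […] range (10 μM–10 nM) in triplicate, then fixed, Hoechst-stained and imaged for nuclei count.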"}, "[2]": {"system": "non-senescent control A549 cells", "test": "Nuclei count senolytic assay, TIS model, non-senescent control cells", "conditions": "Homo sapiens, A549, read-out: Mean % Cell Survival", "outline": "as §1"}, "[3]": {"system": "non-senescent control IMR90 ER:RAS cells", "test": "Nuclei count (Hoechst, high content imaging) senolytic assay, OIS model, non-senescent control cells", "conditions": "Homo sapiens", "outline": "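Compared non-senescent and senescent IMR90 ER:RAS cultures (senescence induced with 4-OHT at 100 nM final); cells seeded 24 h before dosing, then exposed 72 h to compounds, 10-point […] range 10 μM–10 nM, triplicate. Fixed, Hoechst-stained, nuclei counted by high-content imaging; drop versus untreated reflects cell death.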"}}, "note": "Counter-ions that a name gives are not always drawn. Like-named read-outs stand apart in the source and are kept apart here.", "data": [{"smiles": "C[C@H](CCC(=O)NCCS(=O)(=O)O)[C@H]1CC[C@H]2[C@@H]3[C@H](O)C[C@@H]4C[C@H](O)CC[C@]4(C)[C@H]3C[C@H](O)[C@]12C", "note": "[Taurocholic acid sodium, taurocholic acid sodium salt hydrate]", "values": [{"measurement": "viability at 0.01 µM", "setting": "[1]", "result": 103, "unit": "%"}, {"measurement": "viability at 0.0219 µM", "setting": "[1]", "result": 108, "unit": "%"}, {"measurement": "viability at 0.0468 µM", "setting": "[1]", "result": 103, "unit": "%"}, {"measurement": "viability at 0.1 µM", "setting": "[1]", "result": 100, "unit": "%"}, {"measurement": "viability at 0.219 µM", "setting": "[1]", "result": 109, "unit": "%"}, {"measurement": "viability at 0.468 µM", "setting": "[1]", "result": 113, "unit": "%"}, {"measurement": "viability at 1 µM", "setting": "[1]", "result": 112, "unit": "%"}, {"measurement": "viability at 2.19 µM", "setting": "[1]", "result": 106, "unit": "%"}, {"measurement": "viability at 4.68 µM", "setting": "[1]", "result": 109, "unit": "%"}, {"measurement": "viability at 10 µM", "setting": "[1]", "result": 107, "unit": "%"}, {"measurement": "viability at 0.01 µM", "setting": "[2]", "result": 66.6, "unit": "%"}, {"measurement": "viability at 0.0219 µM", "setting": "[2]", "result": 32.6, "unit": "%"}, {"measurement": "viability at 0.0468 µM", "setting": "[2]", "result": 97.7, "unit": "%"}, {"measurement": "viability at 0.1 µM", "setting": "[2]", "result": 29.1, "unit": "%"}, {"measurement": "viability at 0.219 µM", "setting": "[2]", "result": 62.6, "unit": "%"}, {"measurement": "viability at 0.468 µM", "setting": "[2]", "result": 97.8, "unit": "%"}, {"measurement": "viability at 1 µM", "setting": "[2]", "result": 95.9, "unit": "%"}, {"measurement": "viability at 2.19 µM", "setting": "[2]", "result": 69.4, "unit": "%"}, {"measurement": "viability at 4.68 µM", "setting": "[2]", "result": 66.2, "unit": "%"}, {"measurement": "viability at 10 µM", "setting": "[2]", "result": 96.3, "unit": "%"}, {"measurement": "viability at 10 µM", "setting": "[3]; IMR-90, 72 h, read-out: Mean % Cell Survival, Control, log (dose) [M] -5, 72 h, mean n=3 (Fig 3C)", "result": 105, "unit": "%"}, {"measurement": "viability at 4.677 µM", "setting": "[3]; IMR-90, 72 h, read-out: Mean % Cell Survival, Control, log (dose) [M] -5.33, 72 h, mean n=3 (Fig 3C)", "result": 107, "unit": "%"}, {"measurement": "viability at 2.188 µM", "setting": "[3]; IMR-90, 72 h, read-out: Mean % Cell Survival, Control, log (dose) [M] -5.66, 72 h, mean n=3 (Fig 3C)", "result": 115, "unit": "%"}, {"measurement": "viability at 1 µM", "setting": "[3]; IMR-90, 72 h, read-out: Mean % Cell Survival, Control, log (dose) [M] -6, 72 h, mean n=3 (Fig 3C)", "result": 108, "unit": "%"}, {"measurement": "viability at 0.4677 µM", "setting": "[3]; IMR-90, 72 h, read-out: Mean % Cell Survival, Control, log (dose) [M] -6.33, 72 h, mean n=3 (Fig 3C)", "result": 104, "unit": "%"}, {"measurement": "viability at 0.2188 µM", "setting": "[3]; IMR-90, 72 h, read-out: Mean % Cell Survival, Control, log (dose) [M] -6.66, 72 h, mean n=3 (Fig 3C)", "result": 95.4, "unit": "%"}, {"measurement": "viability at 0.1 µM", "setting": "[3]; IMR-90, 72 h, read-out: Mean % Cell Survival, Control, log (dose) [M] -7, 72 h, mean n=3 (Fig 3C)", "result": 81, "unit": "%"}, {"measurement": "viability at 0.04677 µM", "setting": "[3]; IMR-90, 72 h, read-out: Mean % Cell Survival, Control, log (dose) [M] -7.33, 72 h, mean n=3 (Fig 3C)", "result": 94.8, "unit": "%"}, {"measurement": "viability at 0.02188 µM", "setting": "[3]; IMR-90, 72 h, read-out: Mean % Cell Survival, Control, log (dose) [M] -7.66, 72 h, mean n=3 (Fig 3C)", "result": 103, "unit": "%"}, {"measurement": "viability at 0.01 µM", "setting": "[3]; IMR-90, 72 h, read-out: Mean % Cell Survival, Control, log (dose) [M] -8, 72 h, mean n=3 (Fig 3C)", "result": 98.6, "unit": "%"}, {"measurement": "viability at 10 µM", "setting": "[3]; IMR-90, read-out: % Cell Survival, Control cells, log (dose) [M] -5, individual replicates, SUP FIG 4C", "result": 105, "unit": "%"}, {"measurement": "viability at 4.677 µM", "setting": "[3]; IMR-90, read-out: % Cell Survival, Control cells, log (dose) [M] -5.33, individual replicates, SUP FIG 4C", "result": 105, "unit": "%"}, {"measurement": "viability at 2.188 µM", "setting": "[3]; IMR-90, read-out: % Cell Survival, Control cells, log (dose) [M] -5.66, individual replicates, SUP FIG 4C", "result": 122, "unit": "%"}, {"measurement": "viability at 0.2188 µM", "setting": "[3]; IMR-90, read-out: % Cell Survival, Control cells, log (dose) [M] -6.66, individual replicates, SUP FIG 4C", "result": 98.1, "unit": "%"}, {"measurement": "viability at 0.02188 µM", "setting": "[3]; IMR-90, read-out: % Cell Survival, Control cells, log (dose) [M] -7.66, individual replicates, SUP FIG 4C", "result": 103, "unit": "%"}, {"measurement": "viability at 0.01 µM", "setting": "[3]; IMR-90, read-out: % Cell Survival, Control cells, log (dose) [M] -8, individual replicates, SUP FIG 4C", "result": 95, "unit": "%"}, {"measurement": "viability at 10 µM", "setting": "[3]; IMR-90, read-out: % Cell Survival, Control, log (dose) [M] -5", "result": 101, "unit": "%"}, {"measurement": "viability at 4.68 µM", "setting": "[3]; IMR-90, read-out: % Cell Survival, Control, log (dose) [M] -5.33", "result": 103, "unit": "%"}, {"measurement": "viability at 2.19 µM", "setting": "[3]; IMR-90, read-out: % Cell Survival, Control, log (dose) [M] -5.66", "result": 108, "unit": "%"}, {"measurement": "viability at 1 µM", "setting": "[3]; IMR-90, read-out: % Cell Survival, Control, log (dose) [M] -6", "result": 99.9, "unit": "%"}, {"measurement": "viability at 0.468 µM", "setting": "[3]; IMR-90, read-out: % Cell Survival, Control, log (dose) [M] -6.33", "result": 102, "unit": "%"}, {"measurement": "viability at 0.219 µM", "setting": "[3]; IMR-90, read-out: % Cell Survival, Control, log (dose) [M] -6.66", "result": 100, "unit": "%"}, {"measurement": "viability at 0.1 µM", "setting": "[3]; IMR-90, read-out: % Cell Survival, Control, log (dose) [M] -7", "result": 87.4, "unit": "%"}, {"measurement": "viability at 0.04677 µM", "setting": "[3]; IMR-90, read-out: % Cell Survival, Control, log (dose) [M] -7.33", "result": 102, "unit": "%"}, {"measurement": "viability at 0.0219 µM", "setting": "[3]; IMR-90, read-out: % Cell Survival, Control, log (dose) [M] -7.66", "result": 97.8, "unit": "%"}, {"measurement": "viability at 0.01 µM", "setting": "[3]; IMR-90, read-out: % Cell Survival, Control, log (dose) [M] -8", "result": 95.8, "unit": "%"}]}]}
